Measurements: PubChem BioAssay (NCI)
Where “and” joins values, the source holds several entries; their conditions need not be identical. Equal entries are not always repeated.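 Cells were grown in 96-well plates and exposed to each compound for 48 hours at five concentrations; endpoints were interpolated linearly between bracketing concentrations, or set to the highest concentration if not reached. Abbreviation: GI50, concentration required for 50% inhibition of growth. TGI is the concentration that stops growth completely.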

Assays:
Test in all cases: NCI tumour cell line growth inhibition, 48 h
[1] = test system: BT-549 breast
[2] = test system: TK-10 renal
[3] = test system: MCF7 breast
[4] = test system: SF-295 CNS
[5] = test system: SW-620 colon
[6] = test system: ACHN renal
[7] = test system: NCI-H460 lung
[8] = test system: UACC-62 melanoma
[9] = test system: DLD-1 colon
[10] = test system: DMS 114 small cell lung

Cc1cc(C)c(/C=C2\C(=O)Nc3ccc(NC(=O)CCCCCCC(=O)NO)cc32)[nH]1
GI50 [1]: 4.43 µM | TGI [1]: > 100 µM | GI50 [2]: 3.1 µM | TGI [2]: > 100 µM | GI50 [3]: 0.529 µM | TGI [3]: > 100 µM | GI50 [4]: 1.44 µM | TGI [4]: > 45.7 µM | GI50 [5]: 0.317 µM | TGI [5]: 36.2 µM | GI50 [6]: 6.18 µM | TGI [6]: > 100 µM | GI50 [7]: > 50.6 µM | TGI [7]: > 100 µM | GI50 [8]: 0.407 µM | TGI [8]: 2.75 µM

O=P1(c2ccccc2)CCCCC1
TGI [2]: > 100 µM | TGI [4]: > 100 µM | TGI [9]: > 100 µM | TGI [10]: > 100 µM | TGI [6]: > 100 µM | TGI [7]: > 100 µM | TGI [8]: > 100 µM

CSc1ccc2c(c1)C(=O)c1c-2n(CCCBr)c(=O)c2cc([N+](=O)[O-])ccc12
GI50 [1]: 80.7 µM | TGI [1]: > 100 µM | GI50 [2]: > 100 µM | TGI [2]: > 100 µM | GI50 [3]: 1.58 µM | TGI [3]: > 100 µM | GI50 [4]: 1.04 µM | TGI [4]: > 100 µM | GI50 [5]: 4.04 µM | TGI [5]: > 100 µM | GI50 [6]: 1.61 µM | TGI [6]: 8.4 µM | GI50 [7]: 0.547 µM | TGI [7]: > 100 µM | GI50 [8]: 3.1 µM | TGI [8]: > 100 µM

O=C(Nc1ccc(F)cc1)c1cc(S(=O)(=O)Nc2nc3ccccc3o2)c(SCc2ccccc2)cc1Cl
GI50 [1]: 18.5 µM | TGI [1]: 38.9 µM | GI50 [2]: 16.4 µM | TGI [2]: 31.5 µM | GI50 [3]: 24.8 µM | TGI [3]: 63.7 µM | GI50 [4]: 15 µM | TGI [4]: 29.2 µM | GI50 [5]: 17.6 µM | TGI [5]: 33.3 µM | GI50 [6]: 17.5 µM | TGI [6]: 32.2 µM | GI50 [7]: 19.1 µM | TGI [7]: 43.5 µM | GI50 [8]: 14.4 µM | TGI [8]: 27.6 µM

c1ccc2c(c1)c1c(c3ccccc32)CN2CCCC2C1 (stereo not drawn)
TGI [1]: 53.9 µM | TGI [2]: > 90.8 µM | TGI [3]: 11.4 µM | TGI [4]: > 35.5 µM | TGI [5]: 16.7 µM | TGI [6]: 9.35 µM | TGI [7]: > 100 µM | TGI [8]: 12.8 µM

CNS(=O)(=O)NNS(=O)(=O)c1ccc(Br)cc1
TGI [2]: > 100 µM | TGI [9]: > 100 µM | TGI [5]: > 100 µM | TGI [10]: > 100 µM | TGI [6]: > 100 µM | TGI [7]: > 100 µM | TGI [8]: > 100 µM

Cc1cc(C)c(NC(=O)c2sc3nc4c(cc3c2N)CN(Cc2ccccc2)CC4)c(C)c1
GI50 [1]: 4.05 µM | TGI [1]: 57.6 µM | GI50 [2]: 5.06 µM | TGI [2]: > 100 µM | GI50 [3]: 1.61 µM | TGI [3]: 32.2 µM | GI50 [4]: 1.89 µM | TGI [4]: 64.7 µM | GI50 [5]: 2.6 µM | TGI [5]: 17.1 µM | GI50 [6]: 6.31 µM | TGI [6]: > 100 µM | GI50 [7]: 3.29 µM | TGI [7]: 16.3 µM | GI50 [8]: 3.9 µM | TGI [8]: 42.4 µM

C#COc1cccc(Nc2c(C#N)cnc3ncc(NC(=O)CCl)cc23)c1
GI50 [1]: > 62.5 µM | TGI [1]: > 62.5 µM | GI50 [2]: > 62.5 µM | TGI [2]: > 62.5 µM | GI50 [3]: 12.8 µM | TGI [3]: > 62.5 µM | GI50 [4]: > 62.5 µM | TGI [4]: > 62.5 µM | GI50 [5]: 19.8 µM | TGI [5]: > 62.5 µM | GI50 [6]: 22.9 µM | TGI [6]: > 62.5 µM | GI50 [7]: 31.9 µM | TGI [7]: > 62.5 µM | GI50 [8]: 35.7 µM | TGI [8]: > 62.5 µM

N=C(N)c1ccc2nc(-c3cc(CC(=O)N[C@@H](CC(=O)O)C(=O)O)cc(-c4cc(S(N)(=O)=O)ccc4O)c3O)[nH]c2c1
GI50 [1]: > 100 µM | TGI [1]: > 100 µM | GI50 [2]: > 100 µM | TGI [2]: > 100 µM | GI50 [3]: > 100 µM | TGI [3]: > 100 µM | GI50 [4]: > 100 µM | TGI [4]: > 100 µM | GI50 [5]: > 100 µM | TGI [5]: > 100 µM | GI50 [6]: > 100 µM | TGI [6]: > 100 µM | GI50 [7]: > 100 µM | TGI [7]: > 100 µM | GI50 [8]: > 100 µM | TGI [8]: > 100 µM

N#Cc1c(N/N=C/c2ccc(Cl)cc2Cl)nc(N)nc1N1CCCC1
GI50 [1]: > 100 µM | TGI [1]: > 100 µM | GI50 [2]: 54.3 µM | TGI [2]: > 100 µM | GI50 [3]: > 100 µM | TGI [3]: > 100 µM | GI50 [4]: 18.8 µM | TGI [4]: > 100 µM | GI50 [5]: 19.5 µM | TGI [5]: > 100 µM | GI50 [6]: 24.5 µM | TGI [6]: 90.2 µM | GI50 [7]: 63.9 µM | TGI [7]: > 100 µM | GI50 [8]: 25.6 µM | TGI [8]: 84.2 µM

CCOC(=O)/C=C(/C)Sc1cc(O)c2ccccc2c1O
GI50 [1]: 2.93 µM | TGI [1]: 10.5 µM | GI50 [2]: 8.29 µM | TGI [2]: 17.9 µM | GI50 [3]: 1.54 µM | TGI [3]: 3.59 µM | GI50 [4]: 12.4 µM | TGI [4]: 26.4 µM | GI50 [5]: 2.3 µM | TGI [5]: 5.39 µM | GI50 [6]: 2.78 µM | TGI [6]: 9.82 µM | GI50 [7]: 13.9 µM | TGI [7]: 30.4 µM | GI50 [8]: 3.67 µM | TGI [8]: 14 µM

O=C(c1ccc(/C=C/c2n[nH]c3ccccc23)cc1)N1CCNCC1
GI50 [1]: 5.58 µM and 4.14 µM | TGI [1]: > 10 µM and 13.6 µM | GI50 [2]: > 10 µM and 5.29 µM | TGI [2]: > 10 µM and 20.2 µM | TGI [3]: 2.46 µM and 15.5 µM | GI50 [4]: 3.15 µM and 5.28 µM | TGI [4]: > 10 µM and 21.9 µM | GI50 [5]: 1.96 µM and 1.47 µM | TGI [5]: 4.14 µM and 10.8 µM | GI50 [6]: > 10 µM and 4.05 µM | TGI [6]: > 10 µM and 25.3 µM | GI50 [7]: 1.87 µM and 1.09 µM | TGI [7]: 3.58 µM and 12.7 µM | GI50 [8]: 1.72 µM and 11.3 µM | TGI [8]: 3.83 µM and 24.8 µM

Cc1cc(NS(=O)(=O)c2ccc(Nc3c4ccccc4nc4c(C(=O)N5CCN(CCO)CC5)ccc(Cl)c34)cc2)no1
TGI [2]: > 100 µM | TGI [4]: > 100 µM | TGI [9]: > 100 µM | TGI [10]: > 100 µM | TGI [7]: > 100 µM | TGI [8]: > 100 µM

CC(=O)O[C@H]1CCC2[C@@H]3CCC4Nc5[nH]ncc5C[C@]4(C)C3CC[C@@]21C (stereo partly drawn)
TGI [2]: > 100 µM | TGI [4]: > 100 µM | TGI [5]: > 100 µM | TGI [10]: > 100 µM | TGI [6]: > 100 µM | TGI [7]: > 100 µM | TGI [8]: 60.3 µM

[N-]=[N+]=Nc1cc(=O)n2c3c(cccc13)CCC2
TGI [1]: > 100 µM | TGI [2]: > 100 µM | TGI [3]: > 100 µM | TGI [4]: > 100 µM | TGI [5]: > 100 µM | TGI [6]: > 100 µM | TGI [7]: > 100 µM | TGI [8]: > 100 µM

O[C@H](c1cc(C(F)(F)F)nc2c(C(F)(F)F)cccc12)[C@@H]1CCCCN1
GI50 [1]: 12.1 µM | TGI [1]: 25.5 µM | GI50 [2]: 2.85 µM | TGI [2]: 10.4 µM | GI50 [3]: 2.46 µM | TGI [3]: 6.8 µM | GI50 [4]: 2.08 µM | TGI [4]: 5.36 µM | GI50 [5]: 2.05 µM | TGI [5]: 4.52 µM | GI50 [6]: 2.82 µM | TGI [6]: 10.7 µM | GI50 [7]: 2.28 µM | TGI [7]: 5.28 µM | GI50 [8]: 5.9 µM | TGI [8]: 17.5 µM

O=C1NC(=O)C(c2cccc([N+](=O)[O-])c2)=C1Nc1cc(Cl)c(O)c(Cl)c1
GI50 [1]: > 16.2 µM | TGI [1]: > 25 µM | GI50 [2]: > 17.7 µM | TGI [2]: > 25 µM | GI50 [3]: > 25 µM | TGI [3]: > 25 µM | GI50 [4]: > 16.3 µM | TGI [4]: > 25 µM | GI50 [5]: > 25 µM | TGI [5]: > 25 µM | GI50 [6]: > 25 µM | TGI [6]: > 25 µM | GI50 [7]: > 23.4 µM | TGI [7]: > 25 µM | GI50 [8]: > 20.8 µM | TGI [8]: > 25 µM
